What was measured:
Assay in all cases: relative viability (nuclei count vs DMSO), 5 days (fraction); higher = more cells survive
[1] = compound: C1=CC2=NC=CN=C2C=C1/C=C/3\C(=O)NC(=O)S3 + CC(=O)Nc1cccc(-n2c(=O)n(C3CC3)c(=O)c3c(Nc4ccc(I)cc4F)n(C)c(=O)c(C)c32)c1 [Trametinib] (partner 0.02 µM)
In short: (§1)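 After 5 days of treatment, lung cancer cells in 1536-well plates were fixed and stained in a single step (final 0.05% Triton X-100, 1% formaldehyde, 1 ug/ml Hoechst) and their nuclei counted on 4× images. Treatment had been applied by pin tool the day after seeding as one drug alone or as a fixed anchor-drug dose with five library-drug doses (not always all listed) in √10 steps. Relative viability is the nuclei count of treated wells divided by that of vehicle wells, and values are medians of duplicate plates.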

[2] = compound: C1=CC2=NC=CN=C2C=C1/C=C/3\C(=O)NC(=O)S3 + CS(=O)(=O)N1CCN(Cc2cc3nc(-c4cccc5[nH]ncc45)nc(N4CCOCC4)c3s2)CC1 [Pictilisib] (partner 1 µM)
In short: as §1

BGJ398 + Olaparib = compound: CCN1CCN(c2ccc(Nc3cc(N(C)C(=O)Nc4c(Cl)c(OC)cc(OC)c4Cl)ncn3)cc2)CC1 [BGJ398] + O=C(c1cc(Cc2n[nH]c(=O)c3ccccc23)ccc1F)N1CCN(C(=O)C2CC2)CC1 [Olaparib] (partner 8 µM)
In short: as §1

BGJ398 + Lapatinib = compound: CCN1CCN(c2ccc(Nc3cc(N(C)C(=O)Nc4c(Cl)c(OC)cc(OC)c4Cl)ncn3)cc2)CC1 [BGJ398] + CS(=O)(=O)CCNCc1ccc(-c2ccc3ncnc(Nc4ccc(OCc5cccc(F)c5)c(Cl)c4)c3c2)o1 [Lapatinib] (partner 2 µM)
In short: as §1

In the case of UMC-11, the relative viability ([1]; first compound 0.02 µM) is reported as 0.697, the relative viability ([1]; first compound 0.06325 µM) is reported as 0.792 and the relative viability ([1]; first compound 0.2 µM) is reported as 0.75. The relative viability ([1]; first compound 0.6325 µM) was 0.663, the relative viability ([1]; first compound 2 µM) was 0.81 and the relative viability ([2]; first compound 0.02 µM) was 0.839. The relative viability ([2]; first compound 0.06325 µM) was 0.914, the relative viability ([2]; first compound 0.2 µM) was 0.882 and the relative viability ([2]; first compound 0.6325 µM) was 0.786. It also gave a relative viability ([2]; first compound 2 µM) of 0.952, a relative viability (BGJ398 + Olaparib; first compound 0.01 µM) of 0.316 and a relative viability (BGJ398 + Olaparib; first compound 0.03162 µM) of 0.447. The relative viability (BGJ398 + Olaparib; first compound 0.1 µM) was 0.376, the relative viability (BGJ398 + Olaparib; first compound 0.3162 µM) was 0.367 and the relative viability (BGJ398 + Olaparib; first compound 1 µM) was 0.342. For the same cell line, the relative viability (BGJ398 + Lapatinib; first compound 0.01 µM) was 1.14, the relative viability (BGJ398 + Lapatinib; first compound 0.03162 µM) was 0.987 and the relative viability (BGJ398 + Lapatinib; first compound 0.1 µM) was 0.991. It also gave a relative viability (BGJ398 + Lapatinib; first compound 0.3162 µM) of 0.924 and a relative viability (BGJ398 + Lapatinib; first compound 1 µM) of 0.736.
